Laboratory results published in publication PMC8504695, “Structure-Based Virtual Screening and Identification of Potential Inhibitors of SARS-CoV-2 S-RBD and ACE2 Interaction” (Frontiers in Chemistry, 2021).

Key:
[1] = molecular target: SARS-CoV-2 S-RBD/ACE2 interaction (UniProt P0DTC2+Q9BYF1); assay: cell-based; parameters: species or system SARS-CoV-2 / human; details: for inhibition at 20 µM / inhibition at 50 µM: HEK293; for IC50: HEK293 cells, 3 h incubation, n = 3, read-out: IC50 NanoBiT (inhibition of SARS-CoV-2 S-RBD/ACE2 interaction)
Sequence of SARS-CoV-2 S-RBD/ACE2 interaction (Q9BYF1 19-615 limits assumed, other chains not shown): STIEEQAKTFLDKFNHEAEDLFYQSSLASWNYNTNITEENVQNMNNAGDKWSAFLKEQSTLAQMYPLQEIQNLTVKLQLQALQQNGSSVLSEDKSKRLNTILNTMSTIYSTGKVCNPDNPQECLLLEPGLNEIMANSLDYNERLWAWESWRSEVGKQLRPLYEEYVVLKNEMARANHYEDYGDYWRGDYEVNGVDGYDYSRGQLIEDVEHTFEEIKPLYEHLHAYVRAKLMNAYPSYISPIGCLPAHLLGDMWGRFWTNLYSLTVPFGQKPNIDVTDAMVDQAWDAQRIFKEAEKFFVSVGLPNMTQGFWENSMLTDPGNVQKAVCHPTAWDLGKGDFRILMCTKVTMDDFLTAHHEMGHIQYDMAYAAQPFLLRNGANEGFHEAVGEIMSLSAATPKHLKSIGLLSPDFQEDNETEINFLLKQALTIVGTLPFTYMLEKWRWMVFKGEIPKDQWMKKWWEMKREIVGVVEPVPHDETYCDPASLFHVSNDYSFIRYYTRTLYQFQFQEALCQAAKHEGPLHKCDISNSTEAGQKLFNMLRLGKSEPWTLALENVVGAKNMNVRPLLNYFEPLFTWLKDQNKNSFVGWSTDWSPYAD

[2] = molecular target: NanoLuc luciferase (Oplophorus gracilirostris, UniProt Q9GV45, A31E/A60N/A81I/F95D/I117V/K70R/L54V/L99Q/M102K/N193R/P142E/Q151K/Q38R/Q45L/V71I/Y165I); assay: cell-based; details: read-out: IC50 NanoLuc (inhibition of NanoLuc luciferase)
Sequence of NanoLuc luciferase (Q9GV45 other isoform, or with tags, fused parts or gaps with the stated changes): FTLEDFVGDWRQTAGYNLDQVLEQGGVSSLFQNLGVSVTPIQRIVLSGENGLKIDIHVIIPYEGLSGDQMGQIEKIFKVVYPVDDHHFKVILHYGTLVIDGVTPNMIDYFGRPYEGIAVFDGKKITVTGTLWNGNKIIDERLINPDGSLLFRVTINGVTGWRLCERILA

[3] = system: SARS-CoV-2-S pseudovirus; assay: microbe, parasite or virus in culture; format: cell-based; details: for IC50: Pseudovirus, HEK-293T, read-out: IC50 of Anti-SARS-CoV-2-S pseudovirus; for %I, SARS-CoV-2-S pseudovirus inhibition ratio at MNCC: fitted from the inhibition curve
[4] = molecular target: human ACE2 (Homo sapiens, UniProt Q9BYF1); assay: SPR binding assay, immobilized ACE2 (BIAcore T200); details: for Kd: immobilized ACE2, PBS pH 7.4, 25°C; for Binding to human ACE2 by SPR (in words): up to 100,000 nM analyte
Sequence of human ACE2 (Q9BYF1 18-805): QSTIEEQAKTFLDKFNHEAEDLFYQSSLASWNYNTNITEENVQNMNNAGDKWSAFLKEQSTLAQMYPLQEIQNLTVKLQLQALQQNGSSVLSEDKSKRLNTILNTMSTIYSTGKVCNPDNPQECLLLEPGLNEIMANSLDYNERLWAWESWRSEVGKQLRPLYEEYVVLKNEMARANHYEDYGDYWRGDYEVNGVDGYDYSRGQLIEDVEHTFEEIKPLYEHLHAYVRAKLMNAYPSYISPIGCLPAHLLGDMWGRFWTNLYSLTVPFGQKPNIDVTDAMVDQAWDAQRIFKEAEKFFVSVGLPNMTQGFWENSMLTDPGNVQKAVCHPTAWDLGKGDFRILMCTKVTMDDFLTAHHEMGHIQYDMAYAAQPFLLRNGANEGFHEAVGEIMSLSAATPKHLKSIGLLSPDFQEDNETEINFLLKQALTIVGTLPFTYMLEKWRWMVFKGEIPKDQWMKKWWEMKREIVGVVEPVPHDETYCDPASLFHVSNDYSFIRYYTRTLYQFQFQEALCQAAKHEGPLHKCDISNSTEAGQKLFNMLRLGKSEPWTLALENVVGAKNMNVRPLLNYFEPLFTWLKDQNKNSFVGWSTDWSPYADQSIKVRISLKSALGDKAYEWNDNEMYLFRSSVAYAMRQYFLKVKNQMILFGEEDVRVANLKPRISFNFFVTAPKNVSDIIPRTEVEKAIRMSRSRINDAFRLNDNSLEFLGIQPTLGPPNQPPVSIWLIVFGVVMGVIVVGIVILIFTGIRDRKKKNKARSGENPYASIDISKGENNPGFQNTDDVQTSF
Protocol: A BIAcore T200 instrument (GE Healthcare Life Sciences, United States) was used to evaluate the binding affinity of the test compounds to human ACE2 or SARS-CoV-2 S-RBD as previously described ([Li et al., 2017]). Briefly, both proteins were respectively immobilized on the different channels of CM5 sensor chip by a standard amine-coupling approach at a flow rate of 10 μL/min in 10 mM sodium acetate buffer (pH 4.0). The sensor surface was activated with a 7 min injection of the mixture of 50 mM N-hydroxysuccinimide (NHS) and 200 mM 1-ethyl-3-(3-dimethylaminopropyl) carbodiimide (EDC). Then 10 μg/ml of human ACE2 or 50 μg/ml of SARS-CoV-2 S-RBD was injected for 420 s and the surface was blocked with 1 M ethanolamine, pH 8.5. Series concentrations of the test compounds were injected into the flow system at a flow rate of 30 μL/min for 90 s, and the dissociation was 120 s. All binding analysis was performed in phosphate buffered saline (PBS) with 0.05% (v/v) Tween-20 and 1% DMSO (pH 7.4) at 25°C. Prior to analysis, double reference subtractions and solvent corrections were made to eliminate bulk refractive index changes, injection noise, and data drift. The binding affinity was determined by fitting to a Langmuir 1:1 binding model within the BIAcore Evaluation software (GE Healthcare Life Sciences, United States).

[5] = molecular target: SARS-CoV-2 S-RBD (Severe acute respiratory syndrome coronavirus 2, UniProt P0DTC2); assay: SPR binding assay, immobilized S-RBD (BIAcore T200); details: for Kd: immobilized S-RBD, PBS pH 7.4, 25°C; for Binding to SARS-CoV-2 S-RBD by SPR (in words): up to 100,000 nM analyte
[6] = system: HEK293 cells; details: human
[7] = system: ACE2-expressing HEK293T cells; details: concentration required to retain cell viability by 90%
[8] = in vitro; details: human
[9] = system: SARS-CoV-2 pseudovirus; details: cited from earlier work

`O=C(N/N=C/c1cc([N+](=O)[O-])ccc1Cl)c1ccccc1O` [DC-RA016-5] showed an inhibition at 20 µM [1] of 8.7% and an inhibition at 50 µM [1] of 24.9%.
For `Cc1ccccc1C(=O)N/N=C/c1cc([N+](=O)[O-])ccc1Cl` [DC-RA016-4], the inhibition at 20 µM [1] was -3.8% and the inhibition at 50 µM [1] was -24.9%.
For `CCOc1ccc(N(CC(=O)Nc2ccccc2C(=O)NCc2ccco2)S(=O)(=O)c2ccc(OC)c(OC)c2)cc1` [DC-RA106], the IC50 [1] was 24.7 µM, the IC50 [2] was over 100 µM and the “SI, selectivity index” value [3] was over 1.41. For the same molecule, the IC50 [3] was 70.8 µM, the “%I, SARS-CoV-2-S pseudovirus inhibition ratio at MNCC” value [3] was 0.14% and the Kd [4] was over 100 µM. For the same molecule, the “Binding to human ACE2 by SPR (in words)” value [4] was “could bind”, the Kd [5] was over 100 µM and the “Binding to SARS-CoV-2 S-RBD by SPR (in words)” value (from here on “Binding to SARS-CoV-2 S-RBD”) [5] was “showed binding”. For the same molecule, the “CC50 / IC50 Cytotox (HEK293 cell proliferation)” value (“CC50 / IC50 Cytotox” for short) [6] was over 100.00 µM, the “MNCC, maximum non-cytotoxic concentration” value [7] was 13.24 µM and the CC50 [8] was over 100 µM.
Work on `O=C(N/N=C/c1ccccc1O)c1cc(O)cc(O)c1` [DC-RA016-9] yielded an inhibition at 20 µM [1] of 0.6%, an inhibition at 50 µM [1] of 88.6% and an IC50 [1] of 73.8 µM.
In the case of `C=Cc1c(C)c2cc3nc(cc4[nH]c(cc5nc(cc1[nH]2)C(C)=C5CCC(=O)O)c(CCC(=O)OC)c4C)[C@@]1(C)C3=CC=C(C(=O)OC)[C@H]1C(=O)OC` [Visudyne], the “Antiviral activity against SARS-CoV-2 pseudovirus (in words)” value ([9]; cytotoxicity data not reported, ref Fu et al., 2020) is listed as “intense antiviral activity”.
`Cc1ccccc1/C=N/NC(=O)c1cc(O)cc(O)c1` [DC-RA016-10] showed an inhibition at 20 µM [1] of -6.5% and an inhibition at 50 µM [1] of -17.7%.
Work on `O=C(N/N=C/c1cc([N+](=O)[O-])ccc1Cl)c1ccccc1I` [DC-RA016-2] yielded an inhibition at 20 µM [1] of 0.8% and an inhibition at 50 µM [1] of 22.5%.
In the case of `O=C(N/N=C/c1cc([N+](=O)[O-])ccc1Cl)c1cc(O)cc(O)c1` [DC-RA016], the inhibition at 20 µM [1] is reported as 73.1%, the inhibition at 50 µM [1] is reported as 73.1% and the IC50 [1] is reported as 26.6 µM. The IC50 [2] was over 100 µM, the “SI, selectivity index” value [3] was over 4.46 and the IC50 [3] was 22.4 µM. The “%I, SARS-CoV-2-S pseudovirus inhibition ratio at MNCC” value [3] was 52.08%, the Kd [4] was 147 µM and the “Binding to human ACE2 by SPR (in words)” value [4] was “could bind”. For the same molecule, the Kd [5] was 85.1 µM, the “Binding to SARS-CoV-2 S-RBD” value [5] was “showed binding” and the “CC50 / IC50 Cytotox” value [6] was over 100.00 µM. The “MNCC, maximum non-cytotoxic concentration” value [7] was 95.81 µM and the CC50 [8] was over 100 µM.
In the case of `O=C(N/N=C/c1cc([N+](=O)[O-])ccc1Cl)c1cccc(Br)c1` [DC-RA016-1], the inhibition at 20 µM [1] is reported as 3.1% and the inhibition at 50 µM [1] is reported as 7.4%.
`O=C(N/N=C/c1cc([N+](=O)[O-])ccc1Cl)c1cccc([N+](=O)[O-])c1` [DC-RA016-3] gave an inhibition at 20 µM [1] of 1.7% and an inhibition at 50 µM [1] of 24.2%.
In the case of `COc1ccc(C(=O)C[C@]2(O)C(=O)N(CCOc3ccccc3OC)c3ccccc32)c(OC)c1` [DC-RA076], the IC50 [1] is reported as 75.6 µM, the IC50 [2] is reported as over 100 µM and the “SI, selectivity index” value [3] is reported as 2.95. The IC50 [3] was 8.37 µM, the “%I, SARS-CoV-2-S pseudovirus inhibition ratio at MNCC” value [3] was 5.75% and the “Binding to human ACE2 by SPR (in words)” value [4] was “no binding”. For the same molecule, the “Binding to SARS-CoV-2 S-RBD” value [5] was “no binding”, the “CC50 / IC50 Cytotox” value [6] was over 100.00 µM and the “MNCC, maximum non-cytotoxic concentration” value [7] was 2.64 µM. The CC50 [8] was 24.7 µM.
Work on `O=C(N/N=C/c1ccc(Cl)c([N+](=O)[O-])c1)c1cc(O)cc(O)c1` [DC-RA016-12] yielded an inhibition at 20 µM [1] of 61.3%, an inhibition at 50 µM [1] of 88.9% and an IC50 [1] of 26.1 µM.
For `COc1cc(-c2nc3ccccc3s2)ccc1OCC(=O)Nc1ccc(C)cc1` [DC-RA087], the IC50 [1] was 86.2 µM, the IC50 [2] was over 100 µM and the “SI, selectivity index” value [3] was over 4.75. For the same molecule, the IC50 [3] was 21.1 µM, the “%I, SARS-CoV-2-S pseudovirus inhibition ratio at MNCC” value [3] was 36.74% and the “kd to ACE2 (SPR)” value ([4]; immobilized ACE2) was 0.3217 s⁻¹. For the same molecule, the kon ([4]; pH 7.4, immobilized ACE2, read-out: ka to ACE2 (SPR)) was 56.4 M⁻¹ s⁻¹, the “Binding to human ACE2 by SPR (in words)” value [4] was “could bind” and the “Binding to SARS-CoV-2 S-RBD” value [5] was “No binding”. For the same molecule, the “CC50 / IC50 Cytotox” value [6] was over 100.00 µM, the “MNCC, maximum non-cytotoxic concentration” value [7] was 14.01 µM and the CC50 [8] was over 100 µM.
For `Cc1cccc(/C=N/NC(=O)c2cc(O)cc(O)c2)c1` [DC-RA016-11], the inhibition at 20 µM [1] was 4.8% and the inhibition at 50 µM [1] was 12.7%.
Molecule `O=C(N/N=C/c1cc([N+](=O)[O-])ccc1Cl)c1ccc(O)c(O)c1` [DC-RA016-8] has an inhibition at 20 µM [1] of 6.7% and an inhibition at 50 µM [1] of -18.3%.
In the case of `O=C(N/N=C/c1cc([N+](=O)[O-])ccc1Cl)c1ccc(O)cc1O` [DC-RA016-6], the inhibition at 20 µM [1] is reported as 1.9% and the inhibition at 50 µM [1] is reported as 2.9%.
With `O=C(N/N=C/c1cc([N+](=O)[O-])ccc1Cl)c1ccc(O)cc1` [DC-RA016-7] the inhibition at 20 µM [1] was 10.6% and the inhibition at 50 µM [1] was 20.2%.
For `C[C@@]1(C(=O)O)CC[C@]2(C)CC[C@]3(C)C4=CC(=O)c5c(cc(O)c(O)c5C=O)[C@]4(C)CC[C@@]3(C)[C@@H]2C1` [demethylzeylasteral], the “Inhibitory activity against SARS-CoV-2 pseudovirus” value ([9]; under nontoxic concentration, ref Zhu et al., 2021) is given as “approximately 7%”.
